Reference: patent publication US11064698B2, “Tetrazolinone compound and use thereof” (SUMITOMO CHEMICAL COMPANY, LIMITED, priority 2017, dated 2021)

Key:
Format in all cases: in vivo
[1] = system: net blotch (Pyrenophora teres) on barley; assay: Preventive efficacy by foliage application against net blotch on barley
[2] = system: Septoria leaf blotch (Septoria tritici) on wheat; assay: Preventive efficacy by foliage application against Septoria leaf blotch on wheat
[3] = system: diamondback moth (Plutella xylostella); assay: Control test against diamondback moth (Plutella xylostella); conditions: 500 ppm active ingredient, sprayed on cabbage seedlings 20 mL/seedling, 2nd instar larvae, after 5 days, 25° C.
Experimental: Next, a Test Example is used to show efficacy of the Present compound against pests. In the following Test Example, the test was carried out at 25° C. Test Example 1 Control test against diamondback moth (Plutella xylostella) The Present compound was formulated according to the process described in the Formulation Example 6 to obtain a formulation, and water containing a spreader (0.03% by volume) was added thereto to prepare a diluted solution containing 500 ppm of the active ingredient. Cabbage (Brassicae oleracea) seedlings (on the developmental stage of the second to third true leaf) were planted in a container, and said diluted solution was sprayed into the leaves of the seedlings at a ratio of 20 mL/seedling. Thereafter, the stems and leaves of the seedlings were cut out, and the leaves were placed into a container lined with a filter paper. Approximately five the 2nd instar larvae of diamondback moth (Plutella xylostella) were released into the container. After 5 days, the number of the surviving insects was examined, and the controlling value was calculated by the following equation. […] Controlling value (%)={1−(Cb×Tai)/(Cai×Tb)}×100 wherein the symbols in the equation represent the following meanings. […]

Structure (SMILES)	preventive efficacy against net blotch (Pyrenophora teres) [1]	preventive efficacy against Septoria leaf blotch (Septoria tritici) [2]	Controlling value (control effects) [3] [%]
Cc1cccc(-n2nnn(C)c2=O)c1COC1=NN(c2ccc(Cl)cc2)CC1 [compound represented by formula (4)]	showed preventive efficacy	showed preventive efficacy	
Cc1cccc(-n2nnn(C)c2=O)c1CN1C(=O)CCN1c1ccc(Cl)cc1 [Present compound]			100
